Measurements as given in patent US5665745A, “Heterocyclic compounds and their preparation and use” (Eli Lilly and Company, priority 1995, dated 1997).
Where two headings read alike, the source gives them in different places.

Experiments:
[1] = target: T1, muscarinic receptors (M1 -site, pirenzepine sensitive site) (Rattus norvegicus, UniProt P08482); experiment: inhibition of ^3 HPRZ (pirenzepine, [N-methyl-^3 H]) binding to rat cerebral cortex membranes; parameters: species or system rat (male Wistar
T1 construct: from tissue; host or cells: cerebral cortex membranes of male Wistar rats
T1 sequence (P08482 1-460): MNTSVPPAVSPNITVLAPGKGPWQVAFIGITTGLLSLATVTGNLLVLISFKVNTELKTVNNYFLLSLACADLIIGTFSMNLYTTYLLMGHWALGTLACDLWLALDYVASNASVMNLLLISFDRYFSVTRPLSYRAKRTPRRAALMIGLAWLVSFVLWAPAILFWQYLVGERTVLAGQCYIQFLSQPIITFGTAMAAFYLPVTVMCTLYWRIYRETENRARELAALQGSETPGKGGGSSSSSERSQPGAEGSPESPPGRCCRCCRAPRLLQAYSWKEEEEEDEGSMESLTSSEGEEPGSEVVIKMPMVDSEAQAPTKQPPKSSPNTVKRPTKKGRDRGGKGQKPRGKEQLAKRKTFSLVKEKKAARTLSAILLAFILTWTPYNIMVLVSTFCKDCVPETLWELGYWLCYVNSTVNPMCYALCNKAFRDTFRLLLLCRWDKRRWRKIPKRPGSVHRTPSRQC
Experimental: Furthermore the pharmacological properties of the compounds of the invention can also be illustrated by determining their capability to inhibit ^3 HPRZ (pirenzepine, [N-methyl-^3 H]) binding to rat cerebral cortex membranes.
Pirenzepine binds selectively to subtype of muscarinic receptors. Historically the type is named the M1 -site, whereas pirenzepine sensitive site would be more appropriate.
(§1) All preparations are performed at 0°-4° C. unless otherwise indicated. Fresh cortex (0.1-19) from male Wistar rats (150-200 g) is homogenized for 5-10 s in 10 mL 20 mM Hepes pH: 7.4, with an Ultra-Turrax homogenizer. The homogenizer is rinsed with 2×10 mL of buffer and the combined suspension centrifuged for 15 min. at 40,000×g. The pellet is washed three times with buffer. In each step the pellet is homogenized as before in 3×10 mL of buffer and centrifuged for 10 min. at 40,000×g.
The final pellet is homogenized in 20 mM Hepes pH: 7.4 (100 mL per g of original tissue) and used for binding assay. Aliquots of 0.5 mL is added 20 μl of test solution and 25 μL of ^3 HPRZ (1.0 nM, final conc.), mixed and incubated for 60 min. at 20° C. Non-specific binding is determined in triplicate using atropine (1 ,μg/mL, final conc.) as the test substance. After incubation samples are added 5 mL of ice-cold buffer and poured directly onto Whatman GF/C glass fiber filters under suction and immediately washed 2 times with 5 mL of ice-cold buffer. The amount of radioactivity on the filters are determined by conventional liquid scintillation counting. Specific binding is total binding minus non-specific binding.
Test substances are dissolved in 10 mL water, at a concentration of 0.22 mg/mL.
(§2) The test value will be given as IC50 (the concentration (nM) of the test substance which inhibits the specific binding of ^3 HPRZ by 50%). IC50 =(applied test substance concentration) x(Cx /Co -Cx)nM where Co is specific binding in control assays and Cx is the specific binding in the test assay. (The calculations assume normal mass-action kinetics).

[2] = target: muscarinic acetylcholine receptors; experiment: inhibition of specific binding of ^3 H-Oxotremorine-M (^3 H-Oxo); parameters: species or system rat (male Wistar; settings: ^3 H-Oxotremorine 1.0 nM, rat cortex, 30 min. at 25° C.
Excerpt: The pharmacological properties of the compounds of the invention can be illustrated by determining their capability to inhibit the specific binding of ^3 H-Oxotremorine-M (^3 H-Oxo). Birdsdall N. J. M., Hulme E. C., and Burgen A. S. V. (1980). "The Character of Muscarinic Receptors in Different Regions of the Rat Brain" Proc. Roy. Soc. London (Series B) 207,1.
^3 H-Oxo labels muscarinic receptor in the CNS (with a preference for agonist domains of the receptors). Three different sites are labeled by ^3 H-Oxo. […] Using the present experimental conditions only the high and medium affinity sites are determined.
The inhibitory effects of compounds on ^3 H-oxo binding reflects the affinity for muscarinic acetylcholine receptors.
as §1, with “cortex (0.1-1 g)” for “cortex (0.1-19)”, “rats (150-250” for “rats (150-200”, “5-10 seconds” for “5-10 s”, “[…]” for “20 mM”, “with 10” for “with 2×10”, “in 2×10” for “in 3×10”
The final pellet is homogenized in 20 mM Hepes pH: 7.4 (100 mL per g of original tissue) and used for binding assay. Aliquots of 0.5 mL is added 25 μL of test solution and 25 μL of ^3 H-Oxotremorine (1.0 nM, final concentration) mixed and incubated for 30 min. at 25° C. Non-specific binding is determined in triplicate using arecoline ([…], final concentration) as the test substance. After incubation samples are added 5 mL of ice-cold buffer and poured directly onto Whatman GF/C glass fiber filters under suction and immediately washed 2 times with 5 mL of ice-cold buffer. The amount of radioactivity on the filters are determined by conventional liquid scintillation counting. Specific binding is total binding minus non specific binding.
as §2, with “Test substances are dissolved in 10 mL water (if necessary heated on a steam-bath for less than 5 min.) at a concentration of 2.2 mg/mL. […] The test” for “The test”, “of ^3 H-oxo by 50%).” for “of ^3 HPRZ by 50%).”

[3] = ^3 HPRZ 1.0 nM, rat cortex, 60 min. at 20° C., read-out: ^3 HPRZ IC50 (head from b208 on: Pir IC-50)

Structure (SMILES)	IC50 [1, 3] [nM]	IC50 [2] [nM]	IC50 [1] [nM]
CCCCNc1nsnc1OC1CN2CCC1CC2 (racemic) [Compound 75, 3-(1-Butylamino)-4-[(+,-)-3-(azabicyclo[2.2.2]octyloxy)]-1,2,5-thiadiazole]	128	65	
CSCCc1nsnc1OC1CN2CCC1CC2 (racemic) [Compound 99, (±)-3-(2-Methylthioethyl)-4-(1-azabicyclo[2.2.2]octyl-3-oxy)-1,2,5-thiadiazole]		41	70
c1nsnc1OC1CN2CCC1CC2 (racemic) [Compound 100, (±)-3-(1-azabicyclo[2.2.2]octyl-3-oxy)-1,2,5-thiadiazole]	846	873	
CCCCCCc1nsnc1OC1CN2CCC1CC2 (racemic) [Compound 101, (±)-3-Hexyl-4-(1-azabicyclo[2.2.2]octyl-3-oxy)-1,2,5-thiadiazole]		88	36
CCCCS(=O)(=O)c1nsnc1OC1CN2CCC1CC2 (racemic) [Compound 102, (±)-3-Butylsulfonyl-4-(1-azabicyclo[2.2.2]octyl-3-oxy)-1,2,5-thiadiazole]	187	378	
CCCS(=O)(=O)c1nsnc1OC1CN2CCC1CC2 (racemic) [Compound 103, (±)-3-propylsulfonyl-4-(1-azabicyclo[2.2.2]octyl-3-oxy)-1,2,5-thiadiazole]	115	107	
FC(F)(F)CCCOc1nsnc1OC1CN2CCC1CC2 (racemic) [Compound 104, (±)-3-(4,4,4-Trifluorobutyloxy)-4-(1-azabicyclo[2.2.2]octyl-3-oxy)-1,2,5-thiadiazole]	115	107	
CC#CCOc1nsnc1OC1CN2CCC1CC2 (racemic) [Compound 105, (±)-3-(2-butynyloxy)-4-(1-azabicyclo[2.2.2]octyl-3-oxy)-1,2,5-thiadiazole]		7.9	65.6
C1CC1COc1nsnc1OC1CN2CCC1CC2 (racemic) [Compound 106, (±)-3-(Cyclopropylmethoxy)-4-(1-azabicyclo[2.2.2]octyl-3-oxy)-1,2,5-thiadiazole]		9.5	95.4
C(#Cc1ccccc1)COc1nsnc1OC1CN2CCC1CC2 (racemic) [Compound 107, (±)-3-(3-phenylpropynyloxy)-4-(1-azabicyclo[2.2.2]octyl-3-oxy)-1,2,5-thiadiazole]		9.6	22.4
C=CCCOc1nsnc1OC1CN2CCC1CC2 (racemic) [Compound 108, (±)-3-(3-Butenyloxy)-4-(1-azabicyclo[2.2.2]octyl-3-oxy)-1,2,5-thiadiazole]		9.1	56.1
COCCOc1nsnc1OC1CN2CCC1CC2 (racemic) [Compound 111, (±)-3-(2-Methoxyethoxy)-4-(1-azabicyclo[2.2.2]octyl-3-oxy)-1,2,5-thiadiazole]		38	85
c1ccc(OCCOc2nsnc2OC2CN3CCC2CC3)cc1 (racemic) [Compound 112, (±)-3-(2-Phenoxyethoxy)-4-(1-azabicyclo[2.2.2]octyl-3-oxy)-1,2,5-thiadiazole]	153	16	
C#CCCOc1nsnc1OC1CN2CCC1CC2 (racemic) [Compound 113, (±)-3-(3-butynoxy)-4-(1-azabicyclo[2.2.2]octyl-3-oxy)-1,2,5-thiadiazole]		3.6	23
C(CC1CC1)Oc1nsnc1OC1CN2CCC1CC2 (racemic) [Compound 114, (±)-3-(2-Cyclopropylethoxy)-4-(1-azabicyclo[2.2.2]octyl-3-oxy)-1,2,5-thiadiazole]		9.3	43
CSCCOc1nsnc1OC1CN2CCC1CC2 (racemic) [Compound 115, (±)-3-(2-(Methylthio)ethoxy)-4-(1-azabicyclo[2.2.2]octyl-3-oxy)-1,2,5-thiadiazole]	532	19	
ClCCCOc1nsnc1OC1CN2CCC1CC2 (racemic) [Compound 116, (±)-3-(3-Chloropropoxy)-4-(1-azabicyclo[2.2.2]octyl-3-oxy)-1,2,5-thiadiazole]		14	33
FCCCCOc1nsnc1OC1CN2CCC1CC2 (racemic) [Compound 117, (±)-3-(4-Fluorobutyloxy)-4-(1-azabicyclo[2.2.2]octyl-3-oxy)-1,2,5-thiadiazole]	238	32	
Clc1ccc(OCCOc2nsnc2OC2CN3CCC2CC3)cc1 (racemic) [Compound 118, (±)-3-(2-[4-Chlorophenoxy]ethoxy)-4-(1-azabicyclo[2.2.2]octyl-3-oxy)-1,2,5-thiadiazole]		7.2	70
COc1ccc(CCCOc2nsnc2OC2CN3CCC2CC3)cn1 (racemic) [Compound 119, (±)-3-(3-[2-Methoxy-5-pyridyl]propyloxy)-4-(1-azabicyclo[2.2.2]octyl-3-oxy)-1,2,5-thiadiazole]	124	17	
Fc1ccc(OCCOc2nsnc2OC2CN3CCC2CC3)cc1 (racemic) [Compound 121, (±)-3-(2-[4-Fluorophenoxy]ethoxy)-4-(1-azabicyclo[2.2.2]octyl-3-oxy)-1,2,5-thiadiazole]	146	12	
C=CCCCOc1nsnc1OC1CN2CCC1CC2 (racemic) [Compound 122, (±)-3-(4-pentenyloxy)-4-(1-azabicyclo[2.2.2]octyl-3-oxy)-1,2,5-thiadiazole]		11	45
FCCCOc1nsnc1OC1CN2CCC1CC2 (racemic) [Compound 123, (±)-3-(3-Fluoropropyloxy)-4-(1-azabicyclo[2.2.2]octyl-3-oxy)-1,2,5-thiadiazole]	106	42	
C1CC(COc2nsnc2OC2CN3CCC2CC3)C1 (racemic) [Compound 124, (±)-3-(Cyclobutylmethoxy)-4-(1-azabicyclo[2.2.2]octyl-3-oxy)-1,2,5-thiadiazole]		5.8	54
FC(F)(F)C(F)(F)COc1nsnc1OC1CN2CCC1CC2 (racemic) [Compound 125, (±)-3-(3,3,3,2,2-Pentafluoropropyloxy)-4-(1-azabicyclo[2.2.2]octyl-3-oxy)-1,2,5-thiadiazole]	191	36	
